These are literature values, as cited in US20220409569A1, “Cannabinoid Products with High Bioavailability” (The Chemist's Cabinet, LLC, priority 2019, published 2022).

For this series the following is noted: oral administration.

With `C=C(C)[C@@H]1CCC(C)=C[C@H]1c1c(O)cc(CCCCC)cc1O` [CBD, cannabidiol], the bioavailability is given as ~6%.
As for `CCCCCc1cc(O)c2c(c1)OC(C)(C)[C@@H]1CCC(C)=C[C@@H]21` [THC, tetrahydrocannabinol], the bioavailability is listed as 4%-12%.
